“Also recorded” adds a separate entry of the source.
Tested on: not listed separately
Assay: Identification of DHM metabolites in serum and brain by UPLC-QqQ/MS
Type: in vivo, mice
Conditions: male and female mice 15 min post DHM IP 50 mg/kg
Method: Eight-week-old male and female C57BL/6J mice (Jackson’s Laboratories, Bar Harbor, ME, USA) were housed 4 mice to a cage (separated by sex) and maintained on 12-h light, 12-h dark cycles (lights on at 0700 h) in the animal facility at the Department of Animal Sciences, Rutgers University. Following 1-week acclimation, animals were given ad libitum access to water and a polyphenol-free diet (PFD; 3.82 kcal/g, 10% fat, 20% protein, 70% carbohydrate; D12450H; Research Diets, Inc., New Brunswick, NJ, USA) for at least 10 days. For PK studies, after an overnight fast, mice were administered 50 mg/kg DHM (dissolved in 0.9% saline with 10% DMSO) by either IP injection or oral gavage. Oral gavage was performed using single-use, sterile plastic feeding tubes for mice (20 ga × 30 mm; cat# FTP-20-30, Instech Laboratories, (Plymouth Meeting, PA, USA). Mice were deeply anesthetized with 5% isoflurane mixed with oxygen, and blood was collected by cardiac puncture. Following cardiac puncture, animals were exsanguinated and transcardial perfusion with 0.9% saline was performed to ensure blood removal from the brain tissue. Blood and brain samples were collected from a total of 85 mice at 0.25, 0.75, 1.5, 3, 6, 12, 24 h (3–4 mice for each sex and timepoint). Tissues were immediately homogenized with 0.2% formic acid at 1:2 (w/v), and frozen at −80 °C until analysis. Blood was centrifuged at 3000× g for 10 min at 4 °C to isolate serum. For efficacy studies, mice (n = 8/sex) were fasted at 5 h prior to Ethanol gavage 5 g/kg (37% Ethanol in water). DHM 50 mg/kg IP (dissolved in 0.9% saline with 10% DMSO) was administered at 0, 15, 45, 90 and 180 min prior to Ethanol oral gavage. Each mouse was tested at each time point 7 days apart over 6-week period. At the time of Ethanol gavage, mice were placed in oversized conical holders (L: 152 mm X W: 37 mm) and observed for ability to return upright upon being placed in a supine position. Duration of LORR was determined by ability to return upright 3 times within 30 s. To determine whether ethanol-induced tolerance developed, one week (Week 1; Baseline) prior to the 6-week repeated DHM dosing study all mice were oral dose with ethanol (5 g/kg) without any IP injection and LORR was measured. Mice were then re-tested in a similar fashion with oral ethanol 1 week after the DHM 6-week period (Week 8; Post). […] All animal studies were approved by the Institutional Animal Care and Use Committee of Rutgers University (Bello; PROTO999900014, OLAW #A3262-01, 15 March 2017) and complied with NIH Guide for the Care and Use of Laboratory Animals.
All serum samples were stored at −80 °C and conditioned to room temperature prior to analysis. An aliquot of 100 µL of serum, 20 µL 4M HCl, and 50 µL of internal standard (IS) solution (417 ng/mL isoquercetin in EtOAc) were combined in an Eppendorf tube. An aliquot of 500 µL of EtOAc was added and samples were vortexed for 30 s. Samples were then centrifuged at 3000× g for 2 min and the supernatant transferred to a glass vial. Samples were extracted 2 more times with EtOAc and the supernatant added to the corresponding vial containing 10 µL of 2% ascorbic acid in methanol (MeOH). Samples were then dried under vacuum, reconstituted with 100 µL of 45% MeOH in water with 0.1% formic acid (FA), centrifuged at 16,000× g for 10 min and transferred to an HPLC vial for analysis.
Whole brain samples were homogenized in FA. All brain homogenates were stored at −80 °C and conditioned to room temperature prior to analysis. An aliquot of 300 µL of brain homogenate was added to 50 µL IS solution (417 ng/mL in EtOAc) and 500 µL of EtOAc in an Eppendorf tube. Samples were then vortexed for 30 s and sonicated for 1 min. Samples were centrifuged for 2 min at 3000× g and the supernatant transferred to a glass vial with 10 µL of 2% ascorbic acid in methanol. Samples were extracted two more times with 500 µL EtOAc and the supernatant transferred to the corresponding vial and dried under vacuum. […]
In the case of `COc1c(O)cc([C@H]2Oc3cc(O)cc(O)c3C(=O)[C@@H]2O)cc1O` (racemic) [4′-Me-DHM, 4′-O-methyl-dihydromyricetin], the “Detection of metabolite in brain samples” value was “trace levels”.
With `COc1cc(C2Oc3cc(O)cc(O)c3C(=O)C2O)cc(O)c1O` (stereo not drawn) [3′-Me-DHM, 3′-O-methyl-dihydromyricetin] the “Detection of metabolite in brain samples” value was “trace levels”.

Same assay, conditions: mice, following DHM 50 mg/kg IP and PO
With `COc1c(O)cc([C@H]2Oc3cc(O)cc(O)c3C(=O)[C@@H]2O)cc1O` (racemic) [4′-Me-DHM, 4′-O-methyl-dihydromyricetin] the “Detection of metabolite in serum” value was “detected”.
With `COc1cc(C2Oc3cc(O)cc(O)c3C(=O)C2O)cc(O)c1O` (stereo not drawn) [3′-Me-DHM, 3′-O-methyl-dihydromyricetin] the “Detection of metabolite in serum” value was “detected”.
In the case of `O=C1c2c(O)cc(O)cc2OC(c2cc(O)cc(O)c2)C1O` (stereo not drawn) [4′-DeOH-DHM, 4′-dehydroxy-dihydromyricetin], the “Detection of metabolite in serum” value was “detected; also recorded: trace levels”.
With `COc1cc(C2Oc3cc(O)cc(OC4OC(C(=O)O)C(O)C(O)C4O)c3C(=O)C2O)cc(O)c1O` (stereo not drawn) [G-3′-Me-DHM, glucuronide-3′-O-methoxy-dihydromyricetin] the “Detection of metabolite in serum” value was “detected”.
With `COc1c(O)cc(C2Oc3cc(O)cc(OC4OC(C(=O)O)C(O)C(O)C4O)c3C(=O)C2O)cc1O` (stereo not drawn) [G-4′-Me-DHM] the “Detection of metabolite in serum” value was “detected”.
For `O=C1c2c(OC3OC(C(=O)O)C(O)C(O)C3O)cc(O)cc2OC(c2cc(O)c(O)c(O)c2)C1O` (stereo not drawn) [G-DHM, glucuronide-dihydromyricetin], the “Detection of metabolite in serum” value was “detected”.
In the case of “glucuronide-dehydroxy-dihydromyricetin [G-DeOH-DHM]”, the “Detection of metabolite in serum” value was “detected”.

Molecular target: T1, α5β3γ2 GABAA receptors (Homo sapiens, UniProt P18507+P28472+P31644)
T1 construct: expressed in transfected cells; host or cells: Xenopus oocytes (injected with cDNA)
T1 sequence (P31644 32-462): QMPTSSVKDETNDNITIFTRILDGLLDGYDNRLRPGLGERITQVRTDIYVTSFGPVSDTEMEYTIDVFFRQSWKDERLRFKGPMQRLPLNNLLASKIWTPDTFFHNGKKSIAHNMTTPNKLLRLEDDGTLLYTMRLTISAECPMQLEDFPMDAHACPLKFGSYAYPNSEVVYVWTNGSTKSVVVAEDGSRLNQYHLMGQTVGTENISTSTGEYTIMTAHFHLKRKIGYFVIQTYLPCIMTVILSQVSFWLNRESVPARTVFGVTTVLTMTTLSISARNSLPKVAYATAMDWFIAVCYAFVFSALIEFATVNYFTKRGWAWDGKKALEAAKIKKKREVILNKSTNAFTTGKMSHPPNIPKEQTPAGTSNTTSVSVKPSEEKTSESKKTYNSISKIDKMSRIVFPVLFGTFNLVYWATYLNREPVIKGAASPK
T1 sequence (P28472 26-473): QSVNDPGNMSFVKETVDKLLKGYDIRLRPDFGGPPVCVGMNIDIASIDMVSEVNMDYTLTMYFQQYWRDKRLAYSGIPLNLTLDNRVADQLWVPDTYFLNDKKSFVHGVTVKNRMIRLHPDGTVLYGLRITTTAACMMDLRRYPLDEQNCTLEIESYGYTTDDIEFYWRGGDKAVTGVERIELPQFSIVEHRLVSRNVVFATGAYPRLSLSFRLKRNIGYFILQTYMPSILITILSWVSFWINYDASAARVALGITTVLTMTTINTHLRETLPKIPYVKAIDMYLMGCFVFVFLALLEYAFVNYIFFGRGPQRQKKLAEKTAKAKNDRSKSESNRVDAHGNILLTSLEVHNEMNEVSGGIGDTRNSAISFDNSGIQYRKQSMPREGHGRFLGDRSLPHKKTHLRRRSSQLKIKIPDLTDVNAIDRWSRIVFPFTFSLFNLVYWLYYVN
T1 sequence (P18507 40-475): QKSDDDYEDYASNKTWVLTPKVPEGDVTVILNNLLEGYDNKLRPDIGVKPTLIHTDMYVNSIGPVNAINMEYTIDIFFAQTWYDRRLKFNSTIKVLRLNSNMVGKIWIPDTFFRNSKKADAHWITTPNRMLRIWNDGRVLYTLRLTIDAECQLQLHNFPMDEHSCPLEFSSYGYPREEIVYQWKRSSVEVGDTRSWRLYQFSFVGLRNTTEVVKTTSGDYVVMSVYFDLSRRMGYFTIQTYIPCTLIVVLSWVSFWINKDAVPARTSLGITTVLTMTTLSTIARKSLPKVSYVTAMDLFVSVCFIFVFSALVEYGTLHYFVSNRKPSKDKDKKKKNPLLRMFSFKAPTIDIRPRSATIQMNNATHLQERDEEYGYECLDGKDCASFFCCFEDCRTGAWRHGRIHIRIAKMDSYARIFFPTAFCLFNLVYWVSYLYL
Assay: Two-electrode voltage clamp electrophysiology in Xenopus oocytes in the presence of GABA
Type: cell-based
Conditions: compound 10 µM, GABA 10 µM
Method: Xenopus oocytes were stored in incubation media (pH 7.5), consisting of ND96 supplemented with 2 mM sodium pyruvate, […] gentamycin, and 10 mL heat inactivated HyClone horse serum. Stage 4 to 5 oocytes were injected with 40 nL of cDNA coding for α5, β3, and γ2 subunits in a ratio of 1:1:10, utilizing a Drummond Nanoject III. Injected oocytes were stored at 18 °C and used in electrophysiology studies within 2–7 days of injection.
Whole cell two-electrode voltage clamp (TEVC) recording were conducted on oocytes in the presence of GABA, according to previously reported methods. Oocytes were voltage clamped at a membrane potential of −70 mV. The oocyte recording chamber was continuously perfused with modified bath solution (MBS) with select compound (10 µM) and GABA (10 µM), with a final concentration of 1% DMSO [22, 44]. […] Oocytes were perfused at a rate of 3 mL/min. Electrophysiology recordings were conducted in triplicate compound for each compound. The change of GABAAR activity was determined by comparison of GABAAR potentiation to the EC20 with control saline in the presence of GABA.
Pharmacokinetic parameters were calculated using noncompartmental analysis. Elimination half-life (T1/2) was calculated with R software from the linear regression of the terminal phase of the log serum concentration-time curve. The AUC0→24 was calculated with OriginLab software by trapezoidal analysis of the serum concentration-time plot. Cmax and Tmax were determined directly from observed data. Data are expressed as mean ± SEM. Statistical significance between AUC0→24 among test groups was calculated with an independent t-test (GraphPad software, San Diego, CA, USA). Time to LORR was analyzed by repeated measured ANOVA. Tolerance was determined by mean split in LORR response and confirmed with paired t-test (Week 1 vs. Week 8). Statistical significance of serum concentrations for individual time points was calculated using a two-way analysis of variance (ANOVA) analysis. Post hoc Bonferroni tests were performed when justified. Statistical significance of electrophysiology results compound GABAergic modulation was determined using a paired t-test (Vehicle control vs. Compound, GraphPad software, San Diego CA, USA). p < 0.05 was considered significant.
`COc1c(O)cc([C@H]2Oc3cc(O)cc(O)c3C(=O)[C@@H]2O)cc1O` (racemic) [4′-Me-DHM, 4′-O-methyl-dihydromyricetin] showed a GABAAR potentiation of −12.6%.
For `O=C1c2c(O)cc(O)cc2OC(c2cc(O)cc(O)c2)C1O` (stereo not drawn) [4′-DeOH-DHM, 4′-dehydroxy-dihydromyricetin], the GABAAR potentiation was “+5.2%”.

Same assay, conditions: compound 10 µM, GABA 10 µM, mean ± SEM
With `O=C1c2c(O)cc(O)cc2OC(c2cc(O)cc(O)c2)C1O` (stereo not drawn) [4′-DeOH-DHM, 4′-dehydroxy-dihydromyricetin] the “GABAAR potentiation” value was “+5.3 ± 2.0”.

Source: PMC8307506, “Identification of Dihydromyricetin and Metabolites in Serum and Brain Associated with Acute Anti-Ethanol Intoxicating Effects in Mice” (International Journal of Molecular Sciences, 2021)
